# Reference: the supplement of paper PMC10307832
# Tests used:
# Experiment in all cases: relative viability (nuclei count vs DMSO), 5 days (fraction); higher = more cells survive
# AZD5582 + Bortezomib = compound: C[C@@H](C(=O)N[C@@H](C1CCCCC1)C(=O)N2CCC[C@H]2C(=O)N[C@@H]3[C@@H](CC4=CC=CC=C34)OCC#CC#CCO[C@@H]5CC6=CC=CC=C6[C@@H]5NC(=O)[C@@H]7CCCN7C(=O)[C@H](C8CCCCC8)NC(=O)[C@H](C)NC)NC [AZD5582] + CC(C)C[C@H](NC(=O)[C@H](Cc1ccccc1)NC(=O)c1cnccn1)B(O)O [Bortezomib] (partner 0.002 µM)
# Summary of the method: (§1)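 The day after seeding in 1536-well plates, lung cancer cell lines were treated by pin tool with a single drug, or with a fixed anchor-drug dose together with five library-drug doses (not always all listed) in √10 steps. After 5 days, a combined fix-and-stain solution (final 0.05% Triton X-100, 1% formaldehyde, 1 ug/ml Hoechst) was added. Nuclei counted on 4× images gave relative viability as treated counts over vehicle counts, reported as the median of duplicate plates.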
# AZD5582 + Pictilisib = compound: C[C@@H](C(=O)N[C@@H](C1CCCCC1)C(=O)N2CCC[C@H]2C(=O)N[C@@H]3[C@@H](CC4=CC=CC=C34)OCC#CC#CCO[C@@H]5CC6=CC=CC=C6[C@@H]5NC(=O)[C@@H]7CCCN7C(=O)[C@H](C8CCCCC8)NC(=O)[C@H](C)NC)NC [AZD5582] + CS(=O)(=O)N1CCN(Cc2cc3nc(-c4cccc5[nH]ncc45)nc(N4CCOCC4)c3s2)CC1 [Pictilisib] (partner 1 µM)
# Summary of the method: as §1
# AZD5582 + Olaparib = compound: C[C@@H](C(=O)N[C@@H](C1CCCCC1)C(=O)N2CCC[C@H]2C(=O)N[C@@H]3[C@@H](CC4=CC=CC=C34)OCC#CC#CCO[C@@H]5CC6=CC=CC=C6[C@@H]5NC(=O)[C@@H]7CCCN7C(=O)[C@H](C8CCCCC8)NC(=O)[C@H](C)NC)NC [AZD5582] + O=C(c1cc(Cc2n[nH]c(=O)c3ccccc23)ccc1F)N1CCN(C(=O)C2CC2)CC1 [Olaparib] (partner 8 µM)
# Summary of the method: as §1
# Temozolomide + Dasatinib = compound: Cn1nnc2c(C(N)=O)ncn2c1=O [Temozolomide] + Cc1nc(Nc2ncc(C(=O)Nc3c(C)cccc3Cl)s2)cc(N2CCN(CCO)CC2)n1 [Dasatinib] (partner 0.075 µM)
# Summary of the method: as §1
Cell Line,relative viability (AZD5582 + Bortezomib; first compound 0.001581 µM),relative viability (AZD5582 + Bortezomib; first compound 0.005 µM),relative viability (AZD5582 + Bortezomib; first compound 0.01581 µM),relative viability (AZD5582 + Bortezomib; first compound 0.05 µM),relative viability (AZD5582 + Pictilisib; first compound 0.001581 µM),relative viability (AZD5582 + Pictilisib; first compound 0.005 µM),relative viability (AZD5582 + Pictilisib; first compound 0.01581 µM),relative viability (AZD5582 + Pictilisib; first compound 0.05 µM),relative viability (AZD5582 + Olaparib; first compound 0.001581 µM),relative viability (AZD5582 + Olaparib; first compound 0.005 µM),relative viability (AZD5582 + Olaparib; first compound 0.01581 µM),relative viability (AZD5582 + Olaparib; first compound 0.05 µM),relative viability (Temozolomide + Dasatinib; first compound 0.2 µM),relative viability (Temozolomide + Dasatinib; first compound 0.6325 µM),relative viability (Temozolomide + Dasatinib; first compound 2 µM),relative viability (Temozolomide + Dasatinib; first compound 6.325 µM),relative viability (Temozolomide + Dasatinib; first compound 20 µM)
LOU-NH91,0.45,0.509,0.489,0.443,0.557,0.521,0.534,0.539,0.875,0.945,0.928,0.903,0.444,0.551,0.589,0.572,0.448
NCI-H596,1.35,1.2,1.13,0.549,0.31,0.348,0.413,0.191,0.566,,0.802,0.252,0.601,0.697,0.614,0.461,0.564
NCI-H2405,0.972,1.01,0.88,0.947,0.459,0.856,,0.612,0.83,0.875,0.833,0.842,0.214,0.222,0.254,0.199,0.21
PC-3 [JPC-3],0.8,0.788,0.793,0.38,0.664,0.543,0.607,0.332,0.914,0.855,1.09,0.536,0.825,0.987,1.07,1.02,0.438
NCI-H1666,0.717,0.805,0.714,0.73,0.481,0.48,0.413,0.407,0.766,0.745,0.674,0.77,0.859,0.821,0.728,0.571,0.56
COR-L 105,0.768,0.877,0.69,0.827,0.413,0.505,0.288,0.412,0.619,0.673,0.729,0.732,0.285,0.358,0.481,0.313,0.188
NCI-H2085,0.953,1.19,0.933,1.17,0.572,0.44,0.488,0.584,0.842,0.903,0.726,0.733,0.22,0.293,0.282,0.262,0.218
NCI-H1734,0.959,0.963,0.966,1.14,0.455,0.514,0.451,0.631,0.569,0.59,0.615,0.746,0.482,0.471,0.396,0.482,0.464
NCI-H520,0.702,0.826,0.432,0.757,0.266,0.283,0.303,0.311,0.302,0.274,0.382,0.365,0.24,0.212,0.207,0.185,0.235
LXF-289,0.985,1.03,0.987,1.05,0.705,0.795,0.757,0.794,0.98,0.995,0.953,1.02,0.27,0.228,0.192,0.18,0.252
EMC-BAC-2,1.01,1.04,1.02,0.354,0.469,0.523,0.414,0.328,0.43,0.446,0.437,0.446,0.336,0.368,0.368,0.316,0.325
201T,1.1,1.16,1.07,1.17,0.697,0.733,0.703,0.808,0.916,0.904,0.778,0.989,0.584,0.523,0.539,0.57,0.565
ChaGo-K-1,0.988,0.985,0.93,0.982,0.757,0.965,0.432,0.78,0.435,0.41,0.421,0.442,0.605,0.603,0.781,0.552,0.579
RERF-LC-KJ,,0.42,1.11,0.654,0.471,,0.541,0.392,,,0.852,0.691,0.913,0.825,0.931,0.931,0.767
SW 1573,1.3,0.996,1.04,1.43,0.487,0.612,0.635,0.674,0.376,0.523,0.628,0.684,0.532,0.533,0.594,0.355,0.489
NCI-H2347,0.73,0.949,0.693,0.929,0.712,0.446,0.637,0.894,0.496,0.624,0.581,0.525,0.328,0.329,0.298,0.303,0.282
NCI-H2126,1.08,1.1,1.01,1.05,0.505,0.556,0.436,0.533,0.897,0.868,0.861,0.745,0.634,0.664,0.678,0.61,0.641
NCI-H1792,0.92,1.02,0.892,1.22,0.278,0.345,0.28,0.35,0.343,0.466,0.337,0.409,0.498,0.747,0.73,0.778,0.867

Cell Line,relative viability (AZD5582 + Bortezomib; first compound 0.001581 µM),relative viability (AZD5582 + Bortezomib; first compound 0.005 µM),relative viability (AZD5582 + Bortezomib; first compound 0.01581 µM),relative viability (AZD5582 + Bortezomib; first compound 0.05 µM),relative viability (AZD5582 + Pictilisib; first compound 0.001581 µM),relative viability (AZD5582 + Pictilisib; first compound 0.005 µM),relative viability (AZD5582 + Pictilisib; first compound 0.01581 µM),relative viability (AZD5582 + Pictilisib; first compound 0.05 µM),relative viability (AZD5582 + Olaparib; first compound 0.001581 µM),relative viability (AZD5582 + Olaparib; first compound 0.005 µM),relative viability (AZD5582 + Olaparib; first compound 0.01581 µM),relative viability (AZD5582 + Olaparib; first compound 0.05 µM),relative viability (Temozolomide + Dasatinib; first compound 0.2 µM),relative viability (Temozolomide + Dasatinib; first compound 0.6325 µM),relative viability (Temozolomide + Dasatinib; first compound 2 µM),relative viability (Temozolomide + Dasatinib; first compound 6.325 µM),relative viability (Temozolomide + Dasatinib; first compound 20 µM)
SK-LU-1,0.436,0.697,0.856,0.477,0.422,0.357,0.494,0.325,0.353,0.274,0.466,0.142,0.196,0.178,0.206,0.143,0.197
NCI-H1437,0.389,0.549,0.445,0.446,0.439,0.452,0.48,0.409,0.711,0.649,0.648,0.623,0.388,0.438,0.45,0.4,0.393
LCLC-103H,0.972,1.14,0.958,1,0.649,0.699,0.454,0.559,0.806,0.836,0.714,0.862,0.524,0.567,0.548,0.565,0.471
NCI-H647,0.878,0.907,0.997,0.871,0.388,0.449,,0.458,0.492,0.587,0.6,0.589,0.206,0.22,0.303,0.117,0.111
LC-2-ad,1.05,1.14,0.938,1.04,0.327,0.673,0.644,0.662,0.68,0.715,0.659,0.805,0.628,0.662,0.836,0.471,0.472
NCI-H2087,0.874,0.861,0.735,0.933,0.871,1.02,0.905,0.986,0.442,0.604,0.607,0.719,0.909,0.97,1.02,0.734,0.882
COR-L23,0.942,1.02,1.07,1.09,0.71,0.818,0.621,0.717,0.307,0.378,0.32,0.329,0.635,0.516,0.542,0.461,0.6
NCI-H727,0.761,0.932,0.851,1.04,0.258,0.4,0.413,0.257,0.698,0.73,0.65,0.781,0.332,0.406,0.334,0.273,0.299
HCC-78,0.367,0.604,0.421,0.479,0.198,0.24,0.147,0.169,0.869,0.859,0.598,0.791,0.363,0.456,0.418,0.391,0.365
UMC-11,0.677,0.873,0.733,0.709,0.722,0.842,0.648,0.666,0.369,0.375,0.399,0.381,0.567,0.469,0.536,0.489,0.442
NCI-H2023,0.934,1.1,0.721,0.716,0.227,0.288,0.172,0.246,0.401,0.381,0.48,0.412,0.64,0.56,0.616,0.572,0.6
NCI-H1915,0.938,0.991,0.92,0.855,0.88,0.999,0.824,0.936,0.279,0.244,0.25,0.226,0.348,0.328,0.288,0.215,0.198
PC-14,0.736,0.777,0.85,0.743,0.501,0.549,0.598,0.295,0.183,0.148,0.306,0.136,0.216,0.317,0.318,0.257,0.0365
LCLC-97TM1,0.542,0.531,0.455,0.298,,0.244,0.15,0.154,0.38,0.319,0.366,0.272,0.76,0.807,0.934,0.813,0.803
LU99A,1.24,1.32,1.09,1.46,0.315,0.323,0.291,0.37,0.279,0.264,0.213,0.266,0.589,0.489,0.6,0.524,0.548
HCC-366,0.982,1.1,1.01,1.19,0.0939,0.203,0.102,0.205,0.292,0.428,0.353,0.44,0.661,0.688,0.655,0.682,0.652
HOP-62,0.652,0.527,0.691,0.566,0.445,0.655,0.256,0.62,0.234,0.287,0.252,0.232,0.744,0.759,0.73,0.609,0.711
